# Reference: patent US7192906B2, “Substituted pyrazole derivatives, production process thereof, and herbicide compositions containing the derivatives” (SDS Biotech K.K., priority 2001, dated 2007)
# Tested on: Chenopodium album
# Assay: Test Example 1 upland field foliage treatment
# Format: in vivo
# Conditions: Table 4, upland field foliage treatment, index 0-5
# In short: (§1)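 Post-emergence foliar spray of water-diluted wettable powder at 1 kg active ingredient per hectare, applied 14 days after sowing in upland soil. Weed control or crop phytotoxicity rated 21 days later on a 0–5 scale (5: ≥90%, 0: <10%).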
row,SMILES,Herbicidal activity CA: Chenopodium album
1,CCNC(=O)C(Cn1cc(C)c(-c2ccccc2)n1)=NOC [Compound 19],"5 (herbicidal effect of not less than 90%, or phytotoxicity of 90% or more)"
2,CON=C(Cn1cc(C)c(-c2ccccc2)n1)C(=O)NC(C)C [Compound 20],"5 (herbicidal effect of not less than 90%, or phytotoxicity of 90% or more)"

# Tested on: Digitaria adscendens
# Assay: Test Example 1 upland field foliage treatment
# Format: in vivo
# Conditions: Table 4, upland field foliage treatment, index 0-5
# In short: as §1
row,SMILES,Herbicidal activity DA: Digitaria adscendens
1,CCNC(=O)C(Cn1cc(C)c(-c2ccccc2)n1)=NOC [Compound 19],"5 (herbicidal effect of not less than 90%, or phytotoxicity of 90% or more)"
2,CON=C(Cn1cc(C)c(-c2ccccc2)n1)C(=O)NC(C)C [Compound 20],"3 (herbicidal effect of not less than 50% and less than 70%, or phytotoxicity of 50% or more and less than 70%)"

# Tested on: Setaria viridis
# Assay: Test Example 1 upland field foliage treatment
# Format: in vivo
# Conditions: Table 4, upland field foliage treatment, index 0-5
# In short: as §1
row,SMILES,Herbicidal activity SV: Setaria viridis
1,CCNC(=O)C(Cn1cc(C)c(-c2ccccc2)n1)=NOC [Compound 19],"5 (herbicidal effect of not less than 90%, or phytotoxicity of 90% or more)"
2,CON=C(Cn1cc(C)c(-c2ccccc2)n1)C(=O)NC(C)C [Compound 20],"2 (herbicidal effect of not less than 30% and less than 50%, or phytotoxicity of 30% or more and less than 50%)"

# Tested on: Stellaria media
# Assay: Test Example 1 upland field foliage treatment
# Format: in vivo
# Conditions: Table 4, upland field foliage treatment, index 0-5
# In short: as §1
row,SMILES,Herbicidal activity SM: Stellaria media
1,CCNC(=O)C(Cn1cc(C)c(-c2ccccc2)n1)=NOC [Compound 19],"5 (herbicidal effect of not less than 90%, or phytotoxicity of 90% or more)"
2,CON=C(Cn1cc(C)c(-c2ccccc2)n1)C(=O)NC(C)C [Compound 20],"5 (herbicidal effect of not less than 90%, or phytotoxicity of 90% or more)"

# Tested on: soybean (Glycine max)
# Assay: Test Example 1 upland field foliage treatment, crop phytotoxicity
# Format: in vivo
# Conditions: Table 4, upland field foliage treatment, index 0-5
# In short: as §1
row,SMILES,Herbicidal activity (phytotoxicity) GM: Soybean (Glycine max)
1,CCNC(=O)C(Cn1cc(C)c(-c2ccccc2)n1)=NOC [Compound 19],"0 (herbicidal effect of not less than 0% and less than 10%, or phytotoxicity of 0% or more and less than 10%)"
2,CON=C(Cn1cc(C)c(-c2ccccc2)n1)C(=O)NC(C)C [Compound 20],"0 (herbicidal effect of not less than 0% and less than 10%, or phytotoxicity of 0% or more and less than 10%)"

# Tested on: wheat (Triticum aestivum)
# Assay: as above
# Format: in vivo
# Conditions: Table 4, upland field foliage treatment, index 0-5
# In short: as §1
row,SMILES,Herbicidal activity (phytotoxicity) TA: Wheat (Triticum aestivum)
1,CCNC(=O)C(Cn1cc(C)c(-c2ccccc2)n1)=NOC [Compound 19],"0 (herbicidal effect of not less than 0% and less than 10%, or phytotoxicity of 0% or more and less than 10%)"
2,CON=C(Cn1cc(C)c(-c2ccccc2)n1)C(=O)NC(C)C [Compound 20],"0 (herbicidal effect of not less than 0% and less than 10%, or phytotoxicity of 0% or more and less than 10%)"

# Tested on: Chenopodium album
# Assay: Test Example 2 upland soil treatment
# Format: in vivo
# Conditions: Table 5, upland soil treatment, index 0-5
# In short: (§2)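 Pre-emergence soil application the day after sowing, active ingredient at 1 kg per hectare as diluted wettable powder, seeds covered with about 1 cm soil. Assessed 21 days after application on a 0–5 scale (5 = ≥90% herbicidal effect or phytotoxicity; 0 = <10%).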
row,SMILES,Herbicidal activity CA: Chenopodium album
1,CCNC(=O)C(Cn1cc(C)c(-c2ccccc2)n1)=NOC [Compound 19],"5 (herbicidal effect of not less than 90%, or phytotoxicity of 90% or more)"
2,CON=C(Cn1cc(C)c(-c2ccccc2)n1)C(=O)NC(C)C [Compound 20],"3 (herbicidal effect of not less than 50% and less than 70%, or phytotoxicity of 50% or more and less than 70%)"

# Tested on: Digitaria adscendens
# Assay: Test Example 2 upland soil treatment
# Format: in vivo
# Conditions: Table 5, upland soil treatment, index 0-5
# In short: as §2
row,SMILES,Herbicidal activity DA: Digitaria adscendens
1,CCNC(=O)C(Cn1cc(C)c(-c2ccccc2)n1)=NOC [Compound 19],"5 (herbicidal effect of not less than 90%, or phytotoxicity of 90% or more)"
2,CON=C(Cn1cc(C)c(-c2ccccc2)n1)C(=O)NC(C)C [Compound 20],"4 (herbicidal effect of not less than 70% and less than 90%, or phytotoxicity of 70% or more and less than 90%)"

# Tested on: Setaria viridis
# Assay: Test Example 2 upland soil treatment
# Format: in vivo
# Conditions: Table 5, upland soil treatment, index 0-5
# In short: as §2
row,SMILES,Herbicidal activity SV: Setaria viridis
1,CCNC(=O)C(Cn1cc(C)c(-c2ccccc2)n1)=NOC [Compound 19],"5 (herbicidal effect of not less than 90%, or phytotoxicity of 90% or more)"
2,CON=C(Cn1cc(C)c(-c2ccccc2)n1)C(=O)NC(C)C [Compound 20],"3 (herbicidal effect of not less than 50% and less than 70%, or phytotoxicity of 50% or more and less than 70%)"

# Tested on: Stellaria media
# Assay: Test Example 2 upland soil treatment
# Format: in vivo
# Conditions: Table 5, upland soil treatment, index 0-5
# In short: as §2
row,SMILES,Herbicidal activity SM: Stellaria media
1,CCNC(=O)C(Cn1cc(C)c(-c2ccccc2)n1)=NOC [Compound 19],"5 (herbicidal effect of not less than 90%, or phytotoxicity of 90% or more)"
2,CON=C(Cn1cc(C)c(-c2ccccc2)n1)C(=O)NC(C)C [Compound 20],"4 (herbicidal effect of not less than 70% and less than 90%, or phytotoxicity of 70% or more and less than 90%)"

# Tested on: soybean (Glycine max)
# Assay: Test Example 2 upland soil treatment, crop phytotoxicity
# Format: in vivo
# Conditions: Table 5, upland soil treatment, index 0-5
# In short: as §2
row,SMILES,Herbicidal activity (phytotoxicity) GM: Soybean (Glycine max)
1,CCNC(=O)C(Cn1cc(C)c(-c2ccccc2)n1)=NOC [Compound 19],"0 (herbicidal effect of not less than 0% and less than 10%, or phytotoxicity of 0% or more and less than 10%)"
2,CON=C(Cn1cc(C)c(-c2ccccc2)n1)C(=O)NC(C)C [Compound 20],"0 (herbicidal effect of not less than 0% and less than 10%, or phytotoxicity of 0% or more and less than 10%)"

# Tested on: wheat (Triticum aestivum)
# Assay: as above
# Format: in vivo
# Conditions: Table 5, upland soil treatment, index 0-5
# In short: as §2
row,SMILES,Herbicidal activity (phytotoxicity) TA: Wheat (Triticum aestivum)
1,CCNC(=O)C(Cn1cc(C)c(-c2ccccc2)n1)=NOC [Compound 19],"0 (herbicidal effect of not less than 0% and less than 10%, or phytotoxicity of 0% or more and less than 10%)"
2,CON=C(Cn1cc(C)c(-c2ccccc2)n1)C(=O)NC(C)C [Compound 20],"0 (herbicidal effect of not less than 0% and less than 10%, or phytotoxicity of 0% or more and less than 10%)"

# Tested on: Ammannia multiflora
# Assay: Test Example 3 paddy field treatment
# Format: in vivo
# Conditions: paddy field treatment, wettable powder, active ingredient 1 kg per hectare, 21st day after the dropping, index 0-5
# In short: (§3)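 Weed seeds sown in puddled paddy soil under 4 cm water, with two-leaf Koshihikari rice transplanted; 10 days later a wettable powder was applied to the water surface at 1 kg active ingredient/ha. Scored 21 days after application on a 0–5 scale (0 = <10%, 5 = ≥90% herbicidal effect or phytotoxicity).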
row,SMILES,Herbicidal activity AM
1,CCNC(=O)C(Cn1cc(C)c(-c2ccccc2)n1)=NOC [Compound 19],"5 (herbicidal effect of not less than 90%, or phytotoxicity of 90% or more)"
2,CON=C(Cn1cc(C)c(-c2ccccc2)n1)C(=O)NC(C)C [Compound 20],"4 (herbicidal effect of not less than 70% and less than 90%, or phytotoxicity of 70% or more and less than 90%)"

# Tested on: Echinochloa crusgalli
# Assay: Test Example 3 paddy field treatment
# Format: in vivo
# Conditions: paddy field treatment, wettable powder, active ingredient 1 kg per hectare, 21st day after the dropping, index 0-5
# In short: as §3
row,SMILES,Herbicidal activity EC
1,CCNC(=O)C(Cn1cc(C)c(-c2ccccc2)n1)=NOC [Compound 19],"5 (herbicidal effect of not less than 90%, or phytotoxicity of 90% or more)"
2,CON=C(Cn1cc(C)c(-c2ccccc2)n1)C(=O)NC(C)C [Compound 20],"5 (herbicidal effect of not less than 90%, or phytotoxicity of 90% or more)"

# Tested on: Monochoria vaginalis
# Assay: Test Example 3 paddy field treatment
# Format: in vivo
# Conditions: paddy field treatment, wettable powder, active ingredient 1 kg per hectare, 21st day after the dropping, index 0-5
# In short: as §3
row,SMILES,Herbicidal activity MV
1,CCNC(=O)C(Cn1cc(C)c(-c2ccccc2)n1)=NOC [Compound 19],"5 (herbicidal effect of not less than 90%, or phytotoxicity of 90% or more)"
2,CON=C(Cn1cc(C)c(-c2ccccc2)n1)C(=O)NC(C)C [Compound 20],"5 (herbicidal effect of not less than 90%, or phytotoxicity of 90% or more)"

# Tested on: Scirpus juncoides
# Assay: Test Example 3 paddy field treatment
# Format: in vivo
# Conditions: paddy field treatment, wettable powder, active ingredient 1 kg per hectare, 21st day after the dropping, index 0-5
# In short: as §3
row,SMILES,Herbicidal activity SJ
1,CCNC(=O)C(Cn1cc(C)c(-c2ccccc2)n1)=NOC [Compound 19],"5 (herbicidal effect of not less than 90%, or phytotoxicity of 90% or more)"
2,CON=C(Cn1cc(C)c(-c2ccccc2)n1)C(=O)NC(C)C [Compound 20],"4 (herbicidal effect of not less than 70% and less than 90%, or phytotoxicity of 70% or more and less than 90%)"

# Tested on: Rice (Oryza sativa)
# Assay: Test Example 3 paddy field treatment, crop phytotoxicity
# Format: in vivo
# Conditions: paddy field treatment, transplanted rice Koshihikari, wettable powder, active ingredient 1 kg per hectare, 21st day after the dropping, index 0-5
# In short: as §3
row,SMILES,Herbicidal activity OS (phytotoxicity to rice)
1,CCNC(=O)C(Cn1cc(C)c(-c2ccccc2)n1)=NOC [Compound 19],"0 (herbicidal effect of not less than 0% and less than 10%, or phytotoxicity of 0% or more and less than 10%)"
2,CON=C(Cn1cc(C)c(-c2ccccc2)n1)C(=O)NC(C)C [Compound 20],"0 (herbicidal effect of not less than 0% and less than 10%, or phytotoxicity of 0% or more and less than 10%)"
